Measured values: PMC8187357 (Communications Biology, 2021)
“And” between values parts separate entries of the source, which are not always exact repeats. Equal values may be shown once.

What was measured:
[1] = biological target: PD-L1 (Macaca fascicularis, UniProt G7PSE7); test: Rescue of proliferation inhibited by PD-L1, monkey PBMC; format: cell-based; conditions: n=1
Procedure: (§1) The ability of peptides, peptidomimetics, and small molecules were analyzed for their ability to rescue T-cell proliferation or IFN-γ release from the inhibitory activity of PD-L1 or PD-L2 in a splenocyte/PBMC-based functional assay as per the protocols reported in publication. […] For all in vitro assays, test agent stock was prepared in water and diluted further in the assay media to achieve test concentrations. Each experimental condition was carried out in triplicates. Percent rescue for a given test compound concentration was calculated by normalizing individual percent test agent proliferation or IFN-γ release values to percent anti-CD3 and anti-CD28 antibodies stimulated proliferation or IFN-γ release. EC50 values were derived by plotting transformed data into non-linear fit in sigmoidal dose–response curve using GraphPad Prism software (Version 7).

[2] = biological target: T1, PD-L2 (Homo sapiens, UniProt Q9BQ51); test: Rescue of proliferation inhibited by PD-L2, human PBMC; format: cell-based; conditions: mean ± S.D.; n=3
T1 construct: purchased R&D systems 1224-PL-100
Procedure: as §1

[3] = biological target: T2, CTLA4 (Homo sapiens, UniProt P16410); test: CTLA4-B7.1 functional assay (IL-2, Jurkat T cells); format: cell-based; conditions: for IL2: Jurkat + B7.1 + PHA + CTLA-4 200 ng/mL, replicates
T2 construct: Fc (Ig); purchased R & D systems 325-CT
Procedure: CA-170 was evaluated for its potential impact on B7.1 mediated immune-inhibitory interaction with CTLA4 by monitoring the rescue of release of IL-2 in the presence of recombinant CTLA4-Ig and B7.1 in T cells stimulated with phytohemagglutinin (PHA). Briefly, Jurkat T cells (0.25 × 10^5 cells/well of a 96-well plate) grown and starved in serum-free RPMI1640 media for 2 h were stimulated with PHA (10 µg/mL) and B7.1 (500 ng/mL) in the presence of recombinant human CTLA4-Ig (200 ng/mL) and different concentrations of CA-170 and cultured for 48 h at 37 °C. After 48 h of cell culture, supernatant was analyzed for IL-2 by ELISA. Anti-CTLA4 antibody and isotypes were used as controls.

[4] = test system: parental CHO-K1 cells; test: Cellular NMR (T2), parental CHO-K1 cells; format: binding; conditions: cell-based NMR; no measurable PD-L1 expression
[5] = Tolerability in the in vivo pharmacological studies (body weights, clinical signs); conditions: all in vivo pharmacological studies
[6] = test system: BZD (peripheral), BZD (central); test: CEREP 80 panel binding: Benzodiazepine; conditions: 10 µM
Procedure: (§2) CEREP 80 panel assay was carried out by Eurofins Cerep Panlabs facility at France. A series of binding assays was carried out to understand the off-target toxicity of CA-170. CA-170 was tested at 10 μM test concentration in duplicates. Compound binding was calculated as a % inhibition of the binding of a radioactively labeled ligand specific for each target. In each experiment the respective reference compound was tested concurrently with CA-170, and the data were compared with historical values determined at Eurofins. The experiment was accepted in accordance with Eurofins validation standard operating procedure. The results are expressed as a percent of control specific binding; (measured specific binding / control specific binding) × 100 and as a percent inhibition of control specific binding; 100−(measured specific binding / control specific binding) × 100 obtained in the presence of CA-170. The IC50 values (concentration causing a half-maximal inhibition of control specific binding) and Hill coefficients (nH) were determined by non-linear regression analysis of the competition curves generated with mean replicate values using Hill equation curve fitting.

[7] = test system: Glutamate PCP; test: CEREP 80 panel binding: Glutamate; conditions: 10 µM
Procedure: as §2

[8] = biological target: T3, Cannabinoid CB1 (Homo sapiens, UniProt P21554); test: CEREP 80 panel binding: Cannabinoid; conditions: read-out: % Inhibition of Control Specific Binding
T3 construct: Eurofins Cerep Panlabs
Procedure: as §2

[9] = test system: Cholecystokinin CCK1, CCK2; test: CEREP 80 panel binding: Cholecystokinin; conditions: 10 µM
Procedure: as §2

[10] = biological target: T4, Melatonin MT1 (Homo sapiens, UniProt P48039); test: CEREP 80 panel binding: Melatonin; conditions: read-out: % Inhibition of Control Specific Binding
T4 construct: Eurofins Cerep Panlabs (contract assay)
Procedure: as §2

[11] = test system: Prostanoid EP4, IP, TP; test: CEREP 80 panel binding: Prostanoid; conditions: 10 µM
Procedure: as §2

[12] = test system: 5HT1A, 5HT1B, 5HT2A, 5HT2B, 5HT2C, 5HT3, 5HT5A, 5HT6, 5HT7; test: CEREP 80 panel binding: Serotonin; conditions: 10 µM
Procedure: as §2

[13] = test system: Sigma; test: CEREP 80 panel binding: Sigma; conditions: 10 µM
Procedure: as §2

[14] = test system: Neurokinin NK1, NK2, NK3 (antagonist); test: CEREP 80 panel binding: Neurokinin; conditions: 10 µM
Procedure: as §2

[15] = test system: NFAT reporter; design: method as in PMID 31374878; conditions: cited from earlier work
[16] = test system: advanced (stage 4) non-squamous NSCLC; design: method as in doi:10.1093/annonc/mdz253.035; conditions: Phase 2, cited from earlier work
[17] = Plasma stability, human
Procedure: Test compounds were tested for plasma stability (test concentration of 10 μM) as per the protocols reported in publication[20].

[18] = biological target: PD-L1 (Homo sapiens, UniProt Q9NZQ7); test: Rescue of IFN-γ release inhibited by PD-L1, human PBMC; format: cell-based; design: purchased R&D systems 156-B7-100; conditions: for IFNγ Rescue (%): inhibited by PD-L1; for IFNγ Rescue (%) / IFN-γ: replicates; for IFN-γ: human PBMCs + anti-CD3/anti-CD28 + PD-L1 10 nM
Procedure: as §1

Chain of PD-L1 (Homo sapiens, UniProt Q9NZQ7) (Q9NZQ7 with tags, fused parts or gaps limits assumed): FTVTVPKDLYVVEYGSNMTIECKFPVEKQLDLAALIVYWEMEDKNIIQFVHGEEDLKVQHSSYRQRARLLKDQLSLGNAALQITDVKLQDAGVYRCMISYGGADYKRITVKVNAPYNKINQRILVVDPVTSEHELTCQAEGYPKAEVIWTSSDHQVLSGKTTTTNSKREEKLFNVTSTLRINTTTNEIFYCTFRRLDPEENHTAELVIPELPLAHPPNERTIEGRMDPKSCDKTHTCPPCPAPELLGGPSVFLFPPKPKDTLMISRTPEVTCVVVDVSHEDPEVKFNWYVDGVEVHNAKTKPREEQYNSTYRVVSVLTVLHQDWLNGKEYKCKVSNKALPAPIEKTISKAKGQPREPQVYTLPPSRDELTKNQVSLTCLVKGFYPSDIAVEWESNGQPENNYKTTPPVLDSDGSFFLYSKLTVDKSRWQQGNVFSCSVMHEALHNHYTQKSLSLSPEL
T2 sequence (P16410 with tags, fused parts or gaps limits assumed): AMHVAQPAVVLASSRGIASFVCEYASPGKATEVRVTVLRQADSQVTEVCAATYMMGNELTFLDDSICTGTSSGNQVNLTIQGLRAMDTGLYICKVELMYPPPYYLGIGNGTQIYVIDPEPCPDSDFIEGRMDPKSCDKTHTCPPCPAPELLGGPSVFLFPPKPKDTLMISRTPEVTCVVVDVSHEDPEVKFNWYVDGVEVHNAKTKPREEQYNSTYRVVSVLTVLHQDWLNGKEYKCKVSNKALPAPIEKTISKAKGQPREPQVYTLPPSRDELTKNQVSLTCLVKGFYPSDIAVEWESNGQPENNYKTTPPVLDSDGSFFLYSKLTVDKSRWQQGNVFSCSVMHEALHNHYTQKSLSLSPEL
Chain of PD-L1 (Macaca fascicularis, UniProt G7PSE7) (G7PSE7 19-239): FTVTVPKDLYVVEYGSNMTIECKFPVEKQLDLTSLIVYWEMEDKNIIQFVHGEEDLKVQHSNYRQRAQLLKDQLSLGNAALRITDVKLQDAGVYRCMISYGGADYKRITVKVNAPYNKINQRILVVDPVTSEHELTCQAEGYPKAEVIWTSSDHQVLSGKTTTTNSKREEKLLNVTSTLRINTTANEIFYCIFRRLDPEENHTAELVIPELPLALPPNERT
T3 sequence (P21554 whole entry): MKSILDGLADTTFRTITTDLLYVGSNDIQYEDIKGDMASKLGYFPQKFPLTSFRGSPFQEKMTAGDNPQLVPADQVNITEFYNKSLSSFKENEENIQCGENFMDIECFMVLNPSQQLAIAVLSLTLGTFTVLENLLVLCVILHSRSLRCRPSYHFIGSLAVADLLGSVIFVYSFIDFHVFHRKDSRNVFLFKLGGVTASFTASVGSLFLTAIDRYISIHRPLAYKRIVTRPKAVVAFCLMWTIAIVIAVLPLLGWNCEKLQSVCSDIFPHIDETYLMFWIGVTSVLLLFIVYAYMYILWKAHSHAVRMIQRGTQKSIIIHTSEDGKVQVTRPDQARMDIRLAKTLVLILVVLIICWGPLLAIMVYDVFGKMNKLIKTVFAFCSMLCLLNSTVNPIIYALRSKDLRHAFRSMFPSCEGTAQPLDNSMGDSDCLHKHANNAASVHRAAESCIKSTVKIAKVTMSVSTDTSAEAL
T1 sequence (Q9BQ51 with tags, fused parts or gaps limits assumed): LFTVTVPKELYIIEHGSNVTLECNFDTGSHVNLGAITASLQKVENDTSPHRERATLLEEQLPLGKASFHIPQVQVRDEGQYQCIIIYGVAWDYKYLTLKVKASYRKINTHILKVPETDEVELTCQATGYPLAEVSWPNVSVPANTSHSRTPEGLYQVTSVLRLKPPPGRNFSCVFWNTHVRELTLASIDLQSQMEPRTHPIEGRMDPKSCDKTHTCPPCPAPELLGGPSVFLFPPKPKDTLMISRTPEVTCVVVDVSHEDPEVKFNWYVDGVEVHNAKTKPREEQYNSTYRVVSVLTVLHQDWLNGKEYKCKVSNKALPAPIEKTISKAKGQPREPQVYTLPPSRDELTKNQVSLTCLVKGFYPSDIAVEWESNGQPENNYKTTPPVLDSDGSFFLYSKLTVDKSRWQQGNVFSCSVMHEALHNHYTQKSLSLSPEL
T4 sequence (P48039 whole entry): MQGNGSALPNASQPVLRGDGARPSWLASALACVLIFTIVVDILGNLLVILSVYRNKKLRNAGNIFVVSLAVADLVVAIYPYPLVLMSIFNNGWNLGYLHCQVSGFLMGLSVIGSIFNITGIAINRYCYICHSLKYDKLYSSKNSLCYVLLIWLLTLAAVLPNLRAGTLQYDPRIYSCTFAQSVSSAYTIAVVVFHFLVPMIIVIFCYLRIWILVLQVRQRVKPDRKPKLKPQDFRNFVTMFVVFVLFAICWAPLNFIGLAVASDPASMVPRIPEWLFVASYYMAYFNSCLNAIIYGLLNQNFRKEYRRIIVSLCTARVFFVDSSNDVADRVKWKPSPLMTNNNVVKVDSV

Question: For `C[C@@H](O)[C@H](NC(=O)N[C@@H](CC(N)=O)c1nc([C@@H](N)CO)no1)C(=O)O` [CA-170], which EC50 [1] is on record?
Answer: 0.034 µM

Question: What about the EC50 [2] of the same compound?
Answer: 0.0515 µM

Question: What about the IL2 ([3]; 10 nM) of the same compound?
Answer: 100.732 pg/mL and 119.610 pg/mL and 100.195 pg/mL

Question: And the IL2 ([3]; 100 nM)?
Answer: 131.122 pg/mL and 123.634 pg/mL and 97.951 pg/mL

Question: And the IL2 ([3]; 1000 nM)?
Answer: 139.927 pg/mL and 131.366 pg/mL and 108.171 pg/mL

Question: What about the “rescue of IL-2 release inhibited by recombinant hCTLA-4 (in words)” value ([3]; Jurkat cells stimulated with PHA + human B7-1) of the same compound?
Answer: did not rescue the release of IL-2

Question: What about the “binding to parental CHO-K1 cells (in words)” value [4] of the same compound?
Answer: lack of binding

Question: And the “tolerability (body weights, clinical signs; in words)” value [5]?
Answer: well tolerated

Question: And the “% Inhibition of Control Specific Binding” value [6]?
Answer: ≤ 5%

Question: And the “% Inhibition of Control Specific Binding” value [7]?
Answer: 5%

Question: What about the inhibition at 10 µM [8] of the same compound?
Answer: 12%

Question: And the “% Inhibition of Control Specific Binding” value [9]?
Answer: < 0%

Question: What about the inhibition at 10 µM [10] of the same compound?
Answer: 5%

Question: And the “% Inhibition of Control Specific Binding” value [11]?
Answer: ≤ 5%

Question: What about the “% Inhibition of Control Specific Binding” value [12] of the same compound?
Answer: ≤ 20%

Question: And the “% Inhibition of Control Specific Binding” value [13]?
Answer: 20%

Question: And the “% Inhibition of Control Specific Binding” value [14]?
Answer: ≤ 6%

Question: What about the “activity in NFAT-reporter-based assay (in words)” value [15] of the same compound?
Answer: no activity

Question: What about the PFS ([16]; advanced (stage 4) non-squamous NSCLC) of the same compound?
Answer: 19.6 weeks

Question: What about the CBR ([16]; daily dose of 400 mg, advanced non-squamous NSCLC) of the same compound?
Answer: > 85%

Question: And the remaining at 4 h, 10 μM [17]?
Answer: > 95%

Question: What about the “IFNγ Rescue (%)” value ([18]; 1.95 nM) of the same compound?
Answer: -2.66% and -2.30% and -1.54%

Question: What about the “IFNγ Rescue (%)” value ([18]; 3.91 nM) of the same compound?
Answer: -2.42% and -2.56% and -1.54%

Question: What about the “IFNγ Rescue (%)” value ([18]; 15.63 nM) of the same compound?
Answer: 20.10% and 20.46% and 27.08%

Question: And the IFN-γ ([18]; 31.25 nM)?
Answer: 256.5 pg/mL and 264 pg/mL and 296.5 pg/mL

Question: And the “IFNγ Rescue (%)” value ([18]; 31.25 nM)?
Answer: 21.31% and 22.51% and 31.08%

Question: What about the “IFNγ Rescue (%)” value ([18]; 62.50 nM) of the same compound?
Answer: 42.13% and 43.48% and 57.23%

Question: What about the “IFNγ Rescue (%)” value ([18]; 250.00 nM) of the same compound?
Answer: 76.76% and 83.89% and 104.62%

Question: What about the IFN-γ ([18]; 500 nM) of the same compound?
Answer: 876.5 pg/mL and 939 pg/mL and 906.5 pg/mL

Question: What about the “IFNγ Rescue (%)” value ([18]; 500.00 nM) of the same compound?
Answer: 81.36% and 91.56% and 106.15%

Question: What about the “rescue of IFNγ release inhibited by recombinant PD-L1 (in words)” value ([18]; human PBMCs stimulated with anti-CD3 and anti-CD28) of the same compound?
Answer: rescued IFNγ release

Question: And the EC50 ([18]; mean ± S.D., n=3)?
Answer: 0.0661 µM
